From ChEMBL document CHEMBL5653627 (J Neurochem, 2017) come the findings set out here.

What is called Kd is the constant that tells how readily two partners part at equilibrium. The term EC50 denotes the concentration needed to bring the measured effect to its halfway point. A lower EC50 goes with an effect from little substance.

The test system of series [1] is SMA-540. The series is described as follows: Antitumor activity against mouse SMA-540 cells xenografted in VM/Dk mouse assessed as decrease in tumor volume at 100 mg/kg,po daily by H and E staining based microscopy. Format: functional, organism-based.
Series [2] has as its target Epithelial discoidin domain-containing receptor 1 (Homo sapiens, UniProt Q08345). The experiment in a line: Binding affinity to DDR1 (unknown origin) assessed as dissociation constant by KINOME scan assay.
A further series addresses Angiopoietin-1 receptor (Homo sapiens, UniProt Q02763). The series is described as follows: Inhibition of TIE2 autophosphorylation in human HUVEC cells by Western blot analysis. It is filed as cell-based.
The test system of series [3] is GL261. The series is described as follows: Cytotoxicity against mouse GL261 cells assessed as reduction in metabolic activity at 0.001 to 100 uM incubated for 72 hrs by MTT assay. Format: functional, cell-based. Conditions: dose 0.001-100 µM. (In general: Formazan colour is commonly taken as a measure of viable cells.)
Series [4] has as its system SMA-497. The experiment in a line: Cytotoxicity against mouse SMA-497 cells assessed as reduction in metabolic activity at 0.001 to 100 uM incubated for 72 hrs by MTT assay. Format: functional, cell-based. The conditions noted are these: dose 0.001-100 µM.
Series [5] relates to SMA-540. The series is described as follows: Cytotoxicity against mouse SMA-540 cells assessed as reduction in metabolic activity at 0.001 to 100 uM incubated for 72 hrs by MTT assay. Conditions: dose 0.001-100 µM. It is filed as functional, cell-based.
Series [6] deals with GL261. The series is described as follows: Anti-clonogenicic activity in mouse GL261 cells assessed as reduction in colony formation at 0.001 to 10 uM and measured after 10 days by MTT based clonogenic survival assay. It is filed as functional, cell-based. The conditions noted are these: dose 0.001-10 µM, time 10.0 day.
In series [7] the test system is SMA-540. The series is described as follows: Anti-clonogenicic activity in mouse SMA-540 cells assessed as reduction in colony formation at 0.001 to 10 uM and measured after 10 days by MTT based clonogenic survival assay. Conditions: dose 0.001-10 µM, time 10.0 day. It is filed as functional, cell-based.
In series [8] the test system is SMA-497. The series is described as follows: Induction of cell cycle arrest in mouse SMA-497 cells assessed as accumulation at sub G1 phase at 0.1 uM incubated for 72 hrs by propidium iodide/RNase staining based flow cytomtery (Rvb= 2%). It is filed as functional.
Series [9] concerns SMA-560. The series is described as follows: Induction of cell cycle arrest in mouse SMA-560 cells assessed as accumulation at S phase at 0.1 uM incubated for 72 hrs by propidium iodide/RNase staining based flow cytomtery (Rvb= 2%). It is filed as functional.
Series [10] has as its system SMA-560. The experiment in a line: Induction of apoptosis in mouse SMA-560 cells assessed as necrotic cells at 0.1 uM incubated for 72 hrs by Annexin V-FITC/PI staining based flow cytometric analysis (reference value: 13.5%). It is filed as functional.
Series [11] concerns SMA-560. The experiment in a line: Induction of apoptosis in mouse SMA-560 cells assessed as live cells at 0.1 uM incubated for 72 hrs by Annexin V-FITC/PI staining based flow cytometric analysis (reference value: 84.6%). It is filed as functional.
In series [12] the test system is SMA-497. The experiment in a line: Anti-clonogenicic activity in mouse SMA-497 cells assessed as reduction in colony formation at 0.1 to 1 uM preincubated for 6 hrs followed by temozolomide addition and measured after 10 days by MTT based clonogenic survival assay. Format: functional, cell-based. Conditions: dose 0.1-1 µM, time 246.0 hrs.
Series [13] relates to SMA-497. The experiment in a line: Anti-clonogenicic activity in mouse SMA-497 cells assessed as reduction in colony formation at 0.1 to 1 uM preincubated for 6 hrs followed by 1 to 9 Gy irradiation with and measured after 10 days by MTT based clonogenic survival assay. Format: functional, cell-based. The conditions noted are these: dose 0.1-1 µM, time 246.0 hrs.
The test system of another series is Mus musculus. The experiment in a line: In vivo inhibition of Angiopoietin-1 stimulated TIE2 autophosphorylation in lungs of CB17/scid mouse at 25 to 100 mg/kg,po for 3 hrs with angiopoietin-1 stimulation during last 15 mins treatment by immunoblot analysis. It is filed as functional, organism-based. The conditions noted are these: Lung, dose 25-100 mg/kg. Background: Immunoblotting shows a protein as a band on a membrane.

The test system of series [14] is SMA-560. The series is described as follows: In vivo inhibition of TIE-2 in VM/Dk mouse xenografted with mouse SMA-560 cells assessed as decrease in TIE-2 expression in brain blood vessels at 100 mg/kg,po daily by immunohistochemistry analysis. Format: functional, organism-based.
For series [15], the system named is GL261. The experiment in a line: In vivo inhibition of TIE-2 in C57Bl/6 mouse xenografted with mouse GL261 cells assessed as decrease in TIE-2 expression in brain blood vessels at 100 mg/kg,po daily by immunohistochemistry analysis. It is filed as functional, organism-based.
The test system of series [16] is GL261. The series is described as follows: Antitumor activity against mouse GL261 cells xenografted in C57Bl/6 mouse assessed as decrease in number of CD31-positive intra-tumoral vessels in tumor at 100 mg/kg,po daily by immunohistochemistry analysis. Format: functional, organism-based.
The subject of series [17] is GL261. The experiment in a line: Antitumor activity against mouse GL261 cells xenografted in C57Bl/6 mouse assessed as tumor cell proliferation at 100 mg/kg,po daily by Ki67 staining based immunohistochemistry analysis. Format: functional, organism-based.
Series [18] has as its system GL261. The series is described as follows: Antitumor activity against mouse GL261 cells xenografted in C57Bl/6 mouse assessed as decrease in tumor volume at 100 mg/kg,po daily by H and E staining based microscopy. It is filed as functional, organism-based.
Series [19] in a line: Toxicity in C57Bl/6 mouse xenografted with mouse GL261 cells assessed as survival rate at 100 mg/kg,po daily (Rvb=13%). Format: organism-based. Conditions: in vivo.
The subject of series [20] is SMA-497. The experiment in a line: Antitumor activity against mouse SMA-497 cells xenografted in VM/Dk mouse assessed as increase in number of tumor-infiltrating CD11b positive monocytes/microglia in tumor at 100 mg/kg,po daily with 12 Gy irradition after 2days of treatment initiation by immunohistochemistry analysis. It is filed as functional, organism-based.
The nature of series [21]: Toxicity in VM/Dk mouse xenografted with mouse SMA-497 cells assessed as survival rate at 100 mg/kg,po daily with 12 Gy irradition after 2days of treatment initiation (Rvb=17%). It is filed as organism-based. Conditions: in vivo, 48 h.
Series [22] is described as follows: Toxicity in VM/Dk mouse xenografted with mouse SMA-560 cells assessed as survival rate at 100 mg/kg,po daily with 12 Gy irradition after 2days of treatment initiation (Rvb=30%). The conditions noted are these: in vivo, 48 h. It is filed as organism-based.

Calls of active or inactive are those of the source. The rule behind the calls is not given here.

Sequence of Angiopoietin-1 receptor (Q02763 whole entry): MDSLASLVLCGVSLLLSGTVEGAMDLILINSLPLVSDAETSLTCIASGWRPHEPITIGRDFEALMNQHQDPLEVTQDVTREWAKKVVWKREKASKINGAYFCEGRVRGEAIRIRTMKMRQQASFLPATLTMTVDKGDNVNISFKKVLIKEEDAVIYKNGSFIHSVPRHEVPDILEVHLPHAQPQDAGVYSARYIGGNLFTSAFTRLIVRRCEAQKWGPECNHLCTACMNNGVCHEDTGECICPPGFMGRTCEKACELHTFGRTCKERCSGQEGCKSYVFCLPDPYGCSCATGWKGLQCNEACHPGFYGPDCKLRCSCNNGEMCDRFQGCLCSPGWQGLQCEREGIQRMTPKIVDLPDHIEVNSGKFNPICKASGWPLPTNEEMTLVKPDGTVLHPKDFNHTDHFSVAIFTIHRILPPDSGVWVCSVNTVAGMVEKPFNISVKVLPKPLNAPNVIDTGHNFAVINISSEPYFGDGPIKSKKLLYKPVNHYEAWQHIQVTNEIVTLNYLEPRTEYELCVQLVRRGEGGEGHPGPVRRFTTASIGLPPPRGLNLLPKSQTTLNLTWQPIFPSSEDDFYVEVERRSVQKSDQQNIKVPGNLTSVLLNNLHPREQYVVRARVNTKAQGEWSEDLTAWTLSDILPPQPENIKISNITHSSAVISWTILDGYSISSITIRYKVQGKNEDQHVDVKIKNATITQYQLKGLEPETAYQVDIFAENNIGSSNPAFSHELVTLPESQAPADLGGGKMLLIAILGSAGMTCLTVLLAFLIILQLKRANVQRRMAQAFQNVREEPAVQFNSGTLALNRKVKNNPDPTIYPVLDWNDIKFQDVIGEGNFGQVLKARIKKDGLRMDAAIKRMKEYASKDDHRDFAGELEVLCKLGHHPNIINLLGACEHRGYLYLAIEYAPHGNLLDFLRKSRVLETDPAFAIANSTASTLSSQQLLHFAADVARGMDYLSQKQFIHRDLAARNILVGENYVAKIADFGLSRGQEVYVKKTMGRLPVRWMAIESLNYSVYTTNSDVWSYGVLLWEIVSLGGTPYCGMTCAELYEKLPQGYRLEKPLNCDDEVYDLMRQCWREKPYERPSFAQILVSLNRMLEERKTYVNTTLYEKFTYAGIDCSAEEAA
Sequence of Epithelial discoidin domain-containing receptor 1 (Q08345 whole entry, the tested form may be a part): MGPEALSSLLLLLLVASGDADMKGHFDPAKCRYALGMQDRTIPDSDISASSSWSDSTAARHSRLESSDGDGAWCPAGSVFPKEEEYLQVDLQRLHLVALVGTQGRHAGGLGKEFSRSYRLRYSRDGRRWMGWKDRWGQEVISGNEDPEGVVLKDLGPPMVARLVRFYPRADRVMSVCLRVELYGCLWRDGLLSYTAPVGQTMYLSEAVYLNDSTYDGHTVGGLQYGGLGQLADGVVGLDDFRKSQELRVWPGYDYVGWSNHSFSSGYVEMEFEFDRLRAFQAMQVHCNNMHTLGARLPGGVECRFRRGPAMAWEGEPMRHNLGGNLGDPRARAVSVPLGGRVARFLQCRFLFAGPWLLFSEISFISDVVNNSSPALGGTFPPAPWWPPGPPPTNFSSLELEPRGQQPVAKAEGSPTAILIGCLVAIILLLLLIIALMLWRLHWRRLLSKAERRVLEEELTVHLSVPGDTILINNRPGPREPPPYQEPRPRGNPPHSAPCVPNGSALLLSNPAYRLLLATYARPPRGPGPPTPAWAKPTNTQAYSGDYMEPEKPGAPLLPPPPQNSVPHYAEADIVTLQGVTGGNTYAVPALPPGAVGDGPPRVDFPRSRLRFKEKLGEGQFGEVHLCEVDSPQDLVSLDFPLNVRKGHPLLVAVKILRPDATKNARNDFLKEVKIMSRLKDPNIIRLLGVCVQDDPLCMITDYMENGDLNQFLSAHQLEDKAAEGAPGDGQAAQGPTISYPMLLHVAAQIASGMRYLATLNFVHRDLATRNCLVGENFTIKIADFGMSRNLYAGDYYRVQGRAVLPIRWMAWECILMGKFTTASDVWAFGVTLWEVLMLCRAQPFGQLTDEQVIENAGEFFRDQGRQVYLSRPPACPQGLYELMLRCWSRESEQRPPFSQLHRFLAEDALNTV

`Cc1cc(C)c(-n2ccn3nc(-c4cccnc4)cc23)cc1NC(=O)c1cc(C#N)cc(S(F)(F)(F)(F)F)c1` [BAY-826]: the result in the series with SMA-540 [1], in the series with GL261 [3], in the series with SMA-497 [4], with SMA-540 [5], in the series with GL261 [6] and in the series with SMA-540 [7] was inactive. Further, the outcome with SMA-497 [12], in the series with SMA-497 [13], in the series with GL261 [17] and in the series on GL261 [18] was inactive. Moreover, the Kd in series [2] was found to be 0.4 nM. The molecule also showed a 50% effective concentration (EC50) at Angiopoietin-1 receptor of 1.3 nM. Moreover, the Activity is 4% in the series with SMA-497 [8], 3% in the series on SMA-560 [9], 8.81% with SMA-560 [10] and 90.5% in the series with SMA-560 [11]. Also, the inhibition entry with Mus musculus, in the series with SMA-560 [14] and in the series on GL261 [15] was “Active” throughout. Besides, the result in the series with GL261 [16] and with SMA-497 [20] was Active. The Survival in series [19] is recorded as 15%; in series [21], 17%; in [22], 33.5%.
